Reference: patent US11919888B2, “Neprilysin inhibitors” (THERAVANCE BIOPHARMA R&D IP, LLC, priority 2012, dated 2024)

Molecular target: T1, human NEP (Homo sapiens, UniProt P08473)
T1 construct: purchased R&D Systems, Minneapolis, MN 1182-ZN
Assay: In vitro enzyme inhibition assay at human NEP (fluorogenic peptide substrate)
Type: biochemical
Details: recombinant human NEP; 10 μM fluorogenic substrate Mca-D-Arg-Arg-Leu-Dap-(Dnp)-OH; 37° C.; 30 minute preincubation; read-out: pKi value at human NEP (converted)
Protocol: In Vitro Assays for the Quantitation of Inhibitor Potencies (IC50) at Human and Rat NEP, and Human ACE
The inhibitory activities of compounds at human and rat neprilysin (EC 3.4.24.11; NEP) and human angiotensin converting enzyme (ACE) were determined using in vitro assays as described below.
Recombinant human NEP and recombinant human ACE were obtained commercially (R&D Systems, Minneapolis, MN, catalog numbers 1182-ZN and 929-ZN, respectively). The fluorogenic peptide substrate Mca-D-Arg-Arg-Leu-Dap-(Dnp)-OH (Medeiros et al. (1997) Braz. J. Med. Biol. Res. 30:1157-62; Anaspec, San Jose, CA) and Abz-Phe-Arg-Lys(Dnp)-Pro-OH (Araujo et al. (2000) Biochemistry 39:8519-8525; Bachem, Torrance, CA) were used in the NEP and ACE assays respectively.
The assays were performed in 384-well white opaque plates at 37° C. using the fluorogenic peptide substrates at a concentration of 10 μM in Assay Buffer (NEP: 50 mM HEPES, pH 7.5, 100 mM NaCl, 0.01% polyethylene glycol sorbitan monolaurate (Tween-20), 10 μM ZnSO4; ACE: 50 mM HEPES, pH 7.5, 100 mM NaCl, 0.01% Tween-20, 1 μM ZnSO4).
Test compounds were assayed over the range of concentrations from 10 μM to 20 pM. Test compounds were added to the enzymes and incubated for 30 minute at 37° C. prior to initiating the reaction by the addition of substrate. Reactions were terminated after 20 minutes of incubation at 37° C. by the addition of glacial acetic acid to a final concentration of 3.6% (v/v).
Plates were read on a fluorometer with excitation and emission wavelengths set to 320 nm and 405 nm, respectively. Inhibition constants were obtained by nonlinear regression of the data using the equation (GraphPad Software, Inc., San Diego, CA): ν=ν0/[1+(I/K′)] where ν is the reaction rate, ν0 is the uninhibited reaction rate, I is the inhibitor concentration and K′ is the apparent inhibition constant.

T1 sequence (P08473 52-750 limits assumed): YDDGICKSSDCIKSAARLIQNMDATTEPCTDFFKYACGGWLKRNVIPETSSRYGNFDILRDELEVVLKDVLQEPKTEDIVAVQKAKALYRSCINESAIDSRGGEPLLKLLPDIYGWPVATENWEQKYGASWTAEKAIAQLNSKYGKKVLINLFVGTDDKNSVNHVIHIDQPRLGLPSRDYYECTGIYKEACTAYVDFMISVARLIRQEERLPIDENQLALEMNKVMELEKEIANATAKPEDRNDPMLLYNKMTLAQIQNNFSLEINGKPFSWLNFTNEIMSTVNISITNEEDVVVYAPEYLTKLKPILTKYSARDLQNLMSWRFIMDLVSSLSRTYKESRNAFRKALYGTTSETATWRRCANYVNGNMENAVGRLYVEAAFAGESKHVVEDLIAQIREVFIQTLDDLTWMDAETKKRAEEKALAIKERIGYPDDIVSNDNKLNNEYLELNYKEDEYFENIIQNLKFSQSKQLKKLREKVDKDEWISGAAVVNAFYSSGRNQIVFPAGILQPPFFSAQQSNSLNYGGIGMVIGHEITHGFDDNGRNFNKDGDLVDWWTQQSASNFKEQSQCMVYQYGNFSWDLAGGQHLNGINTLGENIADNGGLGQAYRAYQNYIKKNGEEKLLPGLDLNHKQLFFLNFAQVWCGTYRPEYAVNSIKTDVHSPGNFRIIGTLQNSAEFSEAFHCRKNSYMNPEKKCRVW

Ki [nM] | SMILES
≤ 1 | Cc1ccccc1-c1ccc(C[C@H](C[C@@](C)(CO)C(=O)O)NC(=O)c2c[nH]nn2)cc1 [Example 2C, (2S,4R)-2-Hydroxymethyl-2-methyl-5-(2′-methylbiphenyl-4-yl)-4-[(1H-[1,2,3]triazole-4-carbonyl)amino]pentanoic Acid]
≤ 1 | CC(C)Cc1cc(C(=O)N[C@H](Cc2ccc(-c3cc(Cl)ccc3F)cc2)C[C@@](C)(CO)C(=O)O)[nH]n1 [Example 7F, (2S,4R)-5-(5′-Chloro-2′-fluorobiphenyl-4-yl)-2-hydroxymethyl-4-[(5-isobutyl-2H-pyrazole-3-carbonyl)amino]-2-methylpentanoic Acid]
≤ 1 | CCOC[C@](C)(C[C@@H](Cc1ccc(-c2cc(Cl)ccc2F)cc1)NC(=O)c1cc(C(C)=O)[nH]n1)C(=O)O [Example 8C, (2S,4R)-4-[(5-Acetyl-1H-pyrazole-3-carbonyl)amino]-5-(5′-chloro-2′-fluorobiphenyl-4-yl)-2-ethoxymethyl-2-methylpentanoic Acid]
≤ 1 | C[C@@](COCCO)(C[C@@H](Cc1ccc(-c2cccc(Cl)c2)cc1)NC(=O)c1cc(O)no1)C(=O)O [Example 6L, (2S,4R)-5-(3′-Chlorobiphenyl-4-yl)-2-(2-hydroxyethoxymethyl)-4-[(3-hydroxyisoxazole-5-carbonyl)amino]-2-methylpentanoic Acid]
≤ 1 | C[C@@](CO)(C[C@@H](Cc1ccc(-c2ccccc2Cl)cc1)NC(=O)c1c[nH]nn1)C(=O)O [Example 2B, (2S,4R)-5-(2′-Chlorobiphenyl-4-yl)-2-hydroxymethyl-2-methyl-4-[(1H-[1,2,3]triazole-4-carbonyl)amino]pentanoic Acid]
≤ 1 | CC(C)C(=O)OC[C@](C)(C[C@@H](Cc1ccc(-c2ccccc2)cc1)NC(=O)c1cnn[nH]1)C(=O)O [Example 1E, (2S,4R)-5-Biphenyl-4-yl-2-isobutyryloxymethyl-2-methyl-4-[(3H-[1,2,3]triazole-4-carbonyl)amino]pentanoic Acid]
10 to 100 | COC[C@](C)(C[C@@H](Cc1ccc(-c2cccc(Cl)c2)cc1)NC(=O)c1cc(OC)no1)C(=O)O [Example 6B, (2S,4R)-5-(3′-Chlorobiphenyl-4-yl)-4-[(3-methoxyisoxazole-5-carbonyl)amino]-2-methoxymethyl-2-methylpentanoic Acid]
≤ 1 | CCOn1cc(C(=O)N[C@H](Cc2ccc(-c3cc(Cl)ccc3F)cc2)C[C@@](C)(CO)C(=O)O)nn1 [Example 4C, (2S,4R)-5-(5′-Chloro-2′-fluorobiphenyl-4-yl)-4-[(1-ethoxy-1H-[1,2,3]triazole-4-carbonyl)-amino]-2-hydroxymethyl-2-methylpentanoic Acid]
≤ 1 | CC(=O)c1cc(C(=O)N[C@H](Cc2ccc(-c3cc(Cl)ccc3F)cc2)C[C@@](C)(CO)C(=O)O)[nH]n1 [Example 8A, (2S,4R)-4-[(5-Acetyl-2H-pyrazole-3-carbonyl)amino]-5-(5′-chloro-2′-fluorobiphenyl-4-yl)-2-hydroxymethyl-2-methylpentanoic Acid]
1 to 3.16 | C[C@@](CO)(C[C@@H](Cc1ccc(-c2cc(Cl)ccc2F)cc1)NC(=O)c1c[nH]nn1)C(=O)O [Example 2E, (2S,4R)-5-(5′-Chloro-2′-fluorobiphenyl-4-yl)-2-hydroxymethyl-2-methyl-4-[(1H-[1,2,3]triazole-4-carbonyl)amino]pentanoic Acid]
1 to 3.16 | CCOC[C@](C)(C[C@@H](Cc1ccc(-c2ccccc2)cc1)NC(=O)c1c[nH]nn1)C(=O)O [Example 1I, (2S,4R)-5-Biphenyl-4-yl-2-ethoxymethyl-2-methyl-4-[(1H-[1,2,3]triazole-4-carbonyl)amino]pentanoic Acid]
≤ 1 | CC(C)Cc1cc(C(=O)N[C@H](Cc2ccc(-c3cc(Cl)ccc3F)cc2)C[C@@](C)(CO)C(=O)O)on1 [Example 6I, (2S,4R)-5-(5′-Chloro-2′-fluorobiphenyl-4-yl)-2-hydroxymethyl-4-[(3-isobutylisoxazole-5-carbonyl)amino]-2-methylpentanoic Acid]
≤ 1 | C[C@@](CO)(C[C@@H](Cc1ccc(-c2cc(Cl)ccc2F)cc1)NC(=O)c1coc(=O)[nH]1)C(=O)O [Example 5C, (2S,4R)-5-(5′-Chloro-2′-fluorobiphenyl-4-yl)-2-hydroxymethyl-2-methyl-4-[(2-oxo-2,3-dihydro-oxazole-4-carbonyl)amino]pentanoic Acid]
≤ 1 | C[C@@](COCCO)(C[C@@H](Cc1ccc(-c2cccc(Cl)c2)cc1)NC(=O)c1c[nH]nn1)C(=O)O [Example 2L, (2S,4R)-5-(3′-Chlorobiphenyl-4-yl)-2-(2-hydroxyethoxymethyl)-2-methyl-4-[(1H-[1,2,3]triazole-4-carbonyl)amino]pentanoic Acid]
1 to 3.16 | COC[C@](C)(C[C@@H](Cc1ccc(-c2cc(Cl)ccc2F)cc1)NC(=O)c1cc(O)no1)C(=O)O [Example 6K, (2S,4R)-5-(5′-Chloro-2′-fluorobiphenyl-4-yl)-4-[(3-hydroxyisoxazole-5-carbonyl)amino]-2-methoxymethyl-2-methylpentanoic Acid]
1 to 3.16 | CCCCCOC[C@](C)(C[C@@H](Cc1ccc(-c2cc(Cl)ccc2F)cc1)NC(=O)c1cnn[nH]1)C(=O)O [Example 2Q, (2S,4R)-5-(5′-Chloro-2′-fluorobiphenyl-4-yl)-2-methyl-2-pentyloxymethyl-4-[(3H-[1,2,3]triazole-4-carbonyl)amino]pentanoic Acid]
≤ 1 | C[C@@](CO)(C[C@@H](Cc1ccc(-c2cccc(Cl)c2)cc1)NC(=O)c1c[nH]nn1)C(=O)O [Example 2D, (2S,4R)-5-(3′-Chlorobiphenyl-4-yl)-2-hydroxymethyl-2-methyl-4-[(1H-[1,2,3]triazole-4-carbonyl)amino]pentanoic Acid]
≤ 1 | CCOC[C@](C)(C[C@@H](Cc1ccc(-c2cccc(Cl)c2)cc1)NC(=O)c1cc(O)no1)C(=O)O [Example 6M]
≤ 1 | CC(C)OC[C@](C)(C[C@@H](Cc1ccc(-c2cc(Cl)ccc2F)cc1)NC(=O)c1cnn[nH]1)C(=O)O [Example 2R, (2S,4R)-5-(5′-Chloro-2′-fluorobiphenyl-4-yl)-2-isopropoxymethyl-2-methvl-4-[(3H-[1,2,3]triazole-4-carbonyl)amino]pentanoic Acid]
≤ 1 | CCOC[C@](C)(C[C@@H](Cc1ccc(-c2cccc(Cl)c2)cc1)NC(=O)c1cnn[nH]1)C(=O)O [Example 2K, (2S,4R)-5-(3′-Chlorobiphenyl-4-yl)-2-ethoxymethyl-2-methyl-4-[(3H-[1,2,3]triazole-4-carbonyl)amino]pentanoic Acid]
≤ 1 | C[C@@](CO)(C[C@@H](Cc1ccc(-c2cc(Cl)ccc2F)cc1)NC(=O)c1c[nH]c(=O)o1)C(=O)O [Example 5D, (2S,4R)-5-(5′-Chloro-2′-fluorobiphenyl-4-yl)-2-hydroxymethyl-2-methyl-4-[(2-oxo-2,3-dihydro-oxazole-5-carbonyl)amino]pentanoic Acid]
≤ 1 | C[C@@](CO)(C[C@@H](Cc1ccc(-c2ccccc2)cc1)NC(=O)c1cnn[nH]1)C(=O)O [(2S,4R)-5-biphenyl-4-yl-2-hydroxymethyl-2-methyl-4-[(3H-[1,2,3]triazole-4-carbonyl)amino]-pentanoic acid, reference compound]
